Assay results: US20070026506A1, “METHOD FOR THE PRODUCTION OF TAXOL AND/OR TAXANES FROM CULTURES OF HAZEL CELLS” (Centro Biotecnologie Avanzate, priority 2005, published 2007)

Assays:
Format in all cases: cell-based
[1] = test system: callus of Taxus baccata; test: regeneration of callus (formation of young plants), Taxus baccata; conditions: about three months from culturing
[2] = test system: explants of Taxus baccata; test: callus induction from explants of Taxus baccata; conditions: for CALLUS INDUCTION 30 days Leaves (%) / CALLUS INDUCTION 60 days Leaves (%): T. baccata leaves; for CALLUS INDUCTION 30 days Seeds (%) / CALLUS INDUCTION 60 days Seeds (%): T. baccata seeds; for CALLUS INDUCTION 30 days Stems (%) / CALLUS INDUCTION 60 days Stems (%): T. baccata stems
Procedure: (§1) Therefore, in vitro cultures of plant tissues were prepared using leaves, stems and seeds of Corylus avellana (hazel) and of Taxus baccata. Both species used derive from land cultivations in Piedmont and Liguria.
(§2) The plant material was first sterilised, immersing it in a 5% NaClO solution for 20 minutes, and then washed with sterile distilled water three times.
(§3) The plant parts were fragmented and transferred into sterile Petri dishes containing MS solid medium at a concentration of 4.3 g/l, containing vitamins (1 ml/l), sucrose (20 g/l), agar (10 g/l) and phytohormones at different concentrations, all previously sterilised in an autoclave at 121° C. for 15 minutes.
(§4) In the preparation of cultures in vitro 2,4-dichlorophenoxyacetic acid (2,4-D), naphthaleneacetic acid (NAA), benzyladenine (BA) were used as phytohormones, in the following combinations and concentrations: • 2,4-D 1 mg/l • 2,4-D 0.5 mg/l • BA 1 mg/l • BA 0.5 mg/l • 2,4-D 0.5 mg/l+BA 1 mg/l • 2,4-D 1 mg/l+BA 0.5 mg/l • NAA 2 mg/l • NAA 2 mg/l+BA 0.5 mg/l Callus Induction
(§5) For each type of plant tissue (leaf, stem, seed) and for each species (taxus, hazel) at least 96 dishes were prepared: 12 dishes for each hormone concentration or combination. The dishes containing the plant material were kept inside a phytochamber, in the dark and at a constant temperature of 26° C.
(§6) The fragments were transferred, every 15 days, into new dishes with fresh medium containing the corresponding starting hormone or mixture of hormones. After 15 and 30 days from the culturing of the hazel differentiated tissue explants, the formation of the callus was evaluated. The formation of the callus for the taxus was evaluated at 30 and at 60 days, since before then the callus was not clear.

[3] = test system: explants of Corylus avellana; test: callus induction from explants of Corylus avellana; conditions: for CALLUS INDUCTION 15 days Leaves (%) / CALLUS INDUCTION 30 days Leaves (%): C. avellana leaves; for CALLUS INDUCTION 15 days Seeds (%) / CALLUS INDUCTION 30 days Seeds (%): C. avellana seeds; for CALLUS INDUCTION 15 days Stems (%) / CALLUS INDUCTION 30 days Stems (%): C. avellana stems
Procedure: as §1, §2, §3, §4, §5, §6

[4] = test system: callus of Corylus avellana; test: regeneration of callus (formation of young plants), Corylus avellana; conditions: about three months from culturing

O=C(O)COc1ccc(Cl)cc1Cl [2,4-D, 2,4-dichlorophenoxyacetic acid]
FORMATION OF YOUNG PLANTS (%) T. baccata ([1]; hormone 0.5 mg/l): 0%
FORMATION OF YOUNG PLANTS (%) T. baccata ([1]; hormone 1 mg/l): 0%
CALLUS INDUCTION 30 days Leaves (%) ([2]; hormone 0.5 mg/l): 10.9%
CALLUS INDUCTION 30 days Leaves (%) ([2]; hormone 1 mg/l): 25.3%
CALLUS INDUCTION 60 days Leaves (%) ([2]; hormone 0.5 mg/l): 63.8%
CALLUS INDUCTION 60 days Leaves (%) ([2]; hormone 1 mg/l): 56.3%
CALLUS INDUCTION 30 days Seeds (%) ([2]; hormone 0.5 mg/l): 17.4%
CALLUS INDUCTION 30 days Seeds (%) ([2]; hormone 1 mg/l): 26.5%
CALLUS INDUCTION 60 days Seeds (%) ([2]; hormone 0.5 mg/l): 43.7%
CALLUS INDUCTION 60 days Seeds (%) ([2]; hormone 1 mg/l): 37.7%
CALLUS INDUCTION 30 days Stems (%) ([2]; hormone 0.5 mg/l): 46.8%
CALLUS INDUCTION 30 days Stems (%) ([2]; hormone 1 mg/l): 67.0%
CALLUS INDUCTION 60 days Stems (%) ([2]; hormone 0.5 mg/l): 65.8%
CALLUS INDUCTION 60 days Stems (%) ([2]; hormone 1 mg/l): 76.3%
CALLUS INDUCTION 15 days Leaves (%) ([3]; hormone 0.5 mg/l): 40.8%
CALLUS INDUCTION 15 days Leaves (%) ([3]; hormone 1 mg/l): 35.3%
CALLUS INDUCTION 30 days Leaves (%) ([3]; hormone 0.5 mg/l): 41.86%
CALLUS INDUCTION 30 days Leaves (%) ([3]; hormone 1 mg/l): 35.5%
CALLUS INDUCTION 15 days Seeds (%) ([3]; hormone 0.5 mg/l): 27.7%
CALLUS INDUCTION 15 days Seeds (%) ([3]; hormone 1 mg/l): 28.3%
CALLUS INDUCTION 30 days Seeds (%) ([3]; hormone 0.5 mg/l): 61.6%
CALLUS INDUCTION 30 days Seeds (%) ([3]; hormone 1 mg/l): 56.2%
CALLUS INDUCTION 15 days Stems (%) ([3]; hormone 0.5 mg/l): 30.5%
CALLUS INDUCTION 15 days Stems (%) ([3]; hormone 1 mg/l): 25.0%
CALLUS INDUCTION 30 days Stems (%) ([3]; hormone 0.5 mg/l): 75.0%
CALLUS INDUCTION 30 days Stems (%) ([3]; hormone 1 mg/l): 68.5%
FORMATION OF YOUNG PLANTS (%) C. avellana ([4]; hormone 0.5 mg/l): 15.8%
FORMATION OF YOUNG PLANTS (%) C. avellana ([4]; hormone 1 mg/l): 15.5%

c1ccc(CNc2ncnc3nc[nH]c23)cc1 [BA, benzyladenine]
FORMATION OF YOUNG PLANTS (%) T. baccata ([1]; hormone 0.5 mg/l): 0%
FORMATION OF YOUNG PLANTS (%) T. baccata ([1]; hormone 1 mg/l): 0%
CALLUS INDUCTION 30 days Leaves (%) ([2]; hormone 0.5 mg/l): 2.0%
CALLUS INDUCTION 30 days Leaves (%) ([2]; hormone 1 mg/l): 2.0%
CALLUS INDUCTION 60 days Leaves (%) ([2]; hormone 0.5 mg/l): 4.5%
CALLUS INDUCTION 60 days Leaves (%) ([2]; hormone 1 mg/l): 3.0%
CALLUS INDUCTION 30 days Seeds (%) ([2]; hormone 0.5 mg/l): 6.2%
CALLUS INDUCTION 30 days Seeds (%) ([2]; hormone 1 mg/l): 0%
CALLUS INDUCTION 60 days Seeds (%) ([2]; hormone 0.5 mg/l): 32.7%
CALLUS INDUCTION 60 days Seeds (%) ([2]; hormone 1 mg/l): 0%
CALLUS INDUCTION 30 days Stems (%) ([2]; hormone 0.5 mg/l): 2.0%
CALLUS INDUCTION 30 days Stems (%) ([2]; hormone 1 mg/l): 2.5%
CALLUS INDUCTION 60 days Stems (%) ([2]; hormone 0.5 mg/l): 9.0%
CALLUS INDUCTION 60 days Stems (%) ([2]; hormone 1 mg/l): 2.8%
activity in callus induction of taxus cultures ([2]; taxus cultures, exception stated for callus from seed at 60 days): not to be very active
CALLUS INDUCTION 15 days Leaves (%) ([3]; hormone 0.5 mg/l): 1.7%
CALLUS INDUCTION 15 days Leaves (%) ([3]; hormone 1 mg/l): 0%
CALLUS INDUCTION 30 days Leaves (%) ([3]; hormone 0.5 mg/l): 4.6%
CALLUS INDUCTION 30 days Leaves (%) ([3]; hormone 1 mg/l): 4.6%
CALLUS INDUCTION 15 days Seeds (%) ([3]; hormone 0.5 mg/l): 5.1%
CALLUS INDUCTION 15 days Seeds (%) ([3]; hormone 1 mg/l): 4.0%
CALLUS INDUCTION 30 days Seeds (%) ([3]; hormone 0.5 mg/l): 10.3%
CALLUS INDUCTION 30 days Seeds (%) ([3]; hormone 1 mg/l): 13.8%
CALLUS INDUCTION 15 days Stems (%) ([3]; hormone 0.5 mg/l): 0%
CALLUS INDUCTION 15 days Stems (%) ([3]; hormone 1 mg/l): 2.5%
CALLUS INDUCTION 30 days Stems (%) ([3]; hormone 0.5 mg/l): 0%
CALLUS INDUCTION 30 days Stems (%) ([3]; hormone 1 mg/l): 15.0%
suitability for inducing callus from hazel ([3]; used alone at a concentration of 0.5 and 1 mg/l): least suitable for inducing callus from hazel
FORMATION OF YOUNG PLANTS (%) C. avellana ([4]; hormone 0.5 mg/l): 13.3%
FORMATION OF YOUNG PLANTS (%) C. avellana ([4]; hormone 1 mg/l): 8.7%

O=C(O)Cc1cccc2ccccc12 [NAA, naphthaleneacetic acid]
FORMATION OF YOUNG PLANTS (%) T. baccata ([1]; hormone 2 mg/l): 1%
CALLUS INDUCTION 30 days Leaves (%) ([2]; hormone 2 mg/l): 23.8%
CALLUS INDUCTION 60 days Leaves (%) ([2]; hormone 2 mg/l): 33.0%
CALLUS INDUCTION 30 days Seeds (%) ([2]; hormone 2 mg/l): 28.0%
CALLUS INDUCTION 60 days Seeds (%) ([2]; hormone 2 mg/l): 52.0%
CALLUS INDUCTION 30 days Stems (%) ([2]; hormone 2 mg/l): 55.0%
CALLUS INDUCTION 60 days Stems (%) ([2]; hormone 2 mg/l): 56.3%
CALLUS INDUCTION 15 days Leaves (%) ([3]; hormone 2 mg/l): 8.3%
CALLUS INDUCTION 30 days Leaves (%) ([3]; hormone 2 mg/l): 22.1%
CALLUS INDUCTION 15 days Seeds (%) ([3]; hormone 2 mg/l): 4.4%
CALLUS INDUCTION 30 days Seeds (%) ([3]; hormone 2 mg/l): 41.3%
CALLUS INDUCTION 15 days Stems (%) ([3]; hormone 2 mg/l): 8.3%
CALLUS INDUCTION 30 days Stems (%) ([3]; hormone 2 mg/l): 5.4%
FORMATION OF YOUNG PLANTS (%) C. avellana ([4]; hormone 2 mg/l): 14.4%
